Reference: US8378134B2, “Hydroxylated contrast enhancement agents” (General Electric Company, priority 2009, dated 2013)

Assay: Relaxivity determinations (T1 and T2 relaxation times, Bruker Minispec mq60)
Type: physicochemical
Conditions: in PBS, 0.25-1 mM Fe chelate, 60 MHz, 40° C.; gradient of 1/T1 vs Fe chelate concentration
Procedure: A stock solution having a concentration of 1 mM of the contrast enhancement agent was prepared in phosphate buffered saline (PBS) and the iron concentration was verified by elemental analysis. Separate 0.75 mM, 0.50 mM and 0.25 mM samples were prepared from the stock by dilution in PBS and the T1 and T2 relaxations times were recorded in triplicate for each using sample on a Bruker Minispec mq60 instrument (60 MHz, 40° C.). The relaxivities (r1 and r2) were obtained as the gradient of 1/Tx (x=1,2) plotted against Fe chelate concentration following linear least squares regression analysis. Data for contrast enhancement agents having structures III, IV, V, VI, VII, and VII, and a non-hydroxylated control contrast enhancement agent.

Substance | r1 relaxivity [mM⁻¹ s⁻¹]
FeHBED(Me)2(OH)2 [III] | 0.9
FeHBED(OH')2 [VII] | 1.0
FeHBED(OH)2 [IV] | 0.8
FeHBED(OH) [VI] | 1.1
